Results from EP0623599A1 (CIBA-GEIGY AG, priority 1993, dated 1994).
Where two headings read alike, the source gives them in different places.

Legend:
[1] = Fluorescence change between protonated and deprotonated form of the fluorophore; format: physicochemical; settings: in Tetrahydrofuran, pH set with 1 M HCl or 1,0 M NaOH, fluorophore 10⁻⁷ mol/l
Description: Die Ergebnisse sind in Tabelle 2 angegeben.

[2] = pKa determination from fluorescence intensity as a function of pH; settings: for pKa: 30 vol% methanol / 70 vol% phosphate buffer, pH 6
Description: (§2) Die Fluorophore werden in einem Gemisch aus 30 Vol.-% Methanol und 70 Vol.-% Phosphatpuffer gelöst und verschiedene pH-Werte zwischen 6 und 13 eingestellt. Die Messlösungen werden in eine Küvette gefüllt und die Fluoreszenzintensität mit einem Spektrophotometer gemessen. Die Fluoreszenzintensität wird als Funktion des pH-Wertes aufgetragen und aus dem Wendepunkt der Kurve der pKa-Wert ermittelt. […] Die Konzentration der Fluorophore beträgt jeweils 10⁻⁷ mol/l.

[3] = Optical potassium determination with sensor membrane (decrease of fluorescence intensity); settings: aqueous KCl, 1 ml/min, PVC membrane with Valinomycin
Procedure: a) Als Trägermaterial wird vorbehandeltes Glas verwendet. Runde Glasscheiben (Durchmesser 18 mm, Dicke 0,17 mm) werden eine Stunde in eine Lösung von 10 Vol-% Dimethyl-dodecylchlorsilan in Isopropanol getaucht. Danach wäscht man die Glasscheiben nacheinander mit je 200 ml Isopropanol, Ethanol und Methanol und trocknet 1 h bei 110 °C. Die hydrophobisierte Oberfläche weist eine verbesserte Haftung der Membranschicht auf. b) Herstellung der Beschichtungslösung. Die folgenden Bestandteile werden zusammen mit 1,5 ml Tetrahydrofuran in eine 2 ml Flasche gegeben und bis zur Lösung der Komponenten geschüttelt: • 1. 80 mg Polyvinylchlorid (Fluka, 81392) • 2. 160 mg Bis-(2-ethylhexyl)sebacat (Weichmacher) • 3. 5 mg Valinomycin • 4. 1,5 mg Kalium-tetrakis(4-fluorphenyl)borat • 5. 2 mg Fluorophor
c) Herstellung von beschichteten Glasträgern. Die Glasträger werden in der Kammer eines Schleuderbeschichtungsapparats (Optocoat OS 35var, Willer Company, CH-8484 Weisslingen) befestigt. Die Kammer wird mit 10 ml Tetrahydrofuran gespült und 2 min bei 3800 Umdrehungen/Minute rotiert. Danach werden 50 µl der jeweiligen Beschichtungslösung auf den Glasträger pipettiert und der Glasträger noch 10 sec rotiert. Man entfernt den mit einer Membran beschichteten Glasträger und trocknet ihn 10 min an der Luft. d) Spektrale Eigenschaften der Membranen. Die beschichteten Glasträger werden in einer optischen Zelle befestigt, in der die Membran mit der Messflüssigkeit in Berührung steht. Die Membran kann in der optischen Zelle optisch angeregt und die Fluoreszenzstrahlung gemessen werden. Die optische Zelle wird in ein Spektrofluorometer (Pekin-Elmer LS-50) gebracht und das Absorptions- und Emmissionsspektrum gemessen. Ferner wird die relative Fluoreszenzquantenausbeute gemäss der von Calvert und Pitts in Photochemistry, Verlag: John Wiley and Sons Inc., Seiten 799 bis 805 (1966) beschriebenen Methode mit Fluorescein als Standard bestimmt. Die Ergebnisse sind in Tabelle 1 angegeben. Tabelle 1:
(§1) Es wird die gleiche Versuchsanordnung wie in Beispiel B1d verwendet und die Absorptions- sowie Emmissionswellenlängen auf die entsprechenden Maxima der in der Membran eingesetzten Fluorophore eingestellt. Die Membran wird mit einer wässrigen KCl-Lösung definierter Konzentration in Kontakt gebracht, indem man die Lösung mit einer Geschwindigkeit von 1 ml/min durch die Zelle pumpt und die Änderung der Fluoreszenzintensität bestimmt. Vor der Messung und nach jeder Messung wird mit Kaliumionen-freien Pufferlösungen gespült und die Fluoreszenzintensität bestimmt, um die Basislinie festzulegen. Die Erniedrigung der Fluoreszenzintensität in Prozent bei der jeweiligen Kaliumkonzentration für den Fluorophor gemäss Beispiel A5 (Membran B1) sind in der Tabelle 3 angegeben.

[4] = Optical calcium determination with sensor membrane (decrease of fluorescence intensity); settings: buffer pH 5, Polyurethan (Tecoflex) membrane with Kalzium Ionophor I
Procedure: as §1, with “angegeben. Tabelle 3:” for “angegeben.”
Es wird wie in Beispiel C1 verfahren und die Kalziumionenkonzentration mit einer Membran aus 2 mg Fluorophor gemäss Beispiel A5, 30 mg Kalziumionophor ((-)-(R,R)-N,N-[Bis(11-ethoxycarbonyl)undecyl]-N,N-4,5-tetramethyl-3,6-dioxaoctandia mid, Fluka Kalzium Ionophor I, Katalog Nr. 21192), 6 mg Kalium-tetrakis(4-chlorphenyl)borat, 75 mg Polyurethan (Tecoflex®), 160 mg Bis-2-ethylhexyl-sebacat als Weichmacher und 1 ml Tetrahydrofuran bestimmt. Der Sensor wird einer Pufferlösung bei pH 5 (0,02M NaOH und Essigsäure) unterschiedlichen Kalziumkonzentrationen ausgesetzt. Die Ergebnisse sind in Tabelle 7 angegeben.

[5] = Optical sodium determination with sensor membrane (decrease of fluorescence intensity); settings: buffer pH 5, Polyurethan (Tecoflex) membrane with Natrium Ionophor V
Procedure: as §1, with “angegeben. Tabelle 3:” for “angegeben.”
Es wird wie in Beispiel C1 verfahren und die Natriumionenkonzentration mit einer Membran aus 2 mg Fluorophor gemäss Beispiel A5, 30 mg Natriumionophor (4-Octadecanoyloxymethyl-N,N,N,N-tetracyxlohexyl- 1 ,2-phenylendioxy-diacetamid, Fluka Natrium Ionophor V, Katalog Nr. 71738), 2 mg Kalium-tetrakis(4-chlorphenyl)borat, 75 mg Polyurethan (Tecoflex®), 160 mg Bis-2-ethylhexyl-sebacat als Weichmacher und 1 ml Tetrahydrofuran bestimmt. Der Sensor wird einer Pufferlösung bei pH 5 (0,1 Mol Tris-hydroxymethyl-aminomit-methan und 1M HCl) unterschiedlichen Natriumkonzentrationen ausgesetzt. Die Ergebnisse sind in Tabelle 6 angegeben.

[6] = 30% methanol phosphate buffer, pH 6
Description: as §2

Änderung Fluoreszenzintensität [1] | pKa [2] | SMILES | % Erniedrigung Fluoreszenzintensität ([3]; Kalium-Konzentration 0,1 mM) | % Erniedrigung Fluoreszenzintensität ([3]; Kalium-Konzentration 0,5 mM) | % Erniedrigung Fluoreszenzintensität ([3]; Kalium-Konzentration 1,0 mM) | % Erniedrigung Fluoreszenzintensität ([3]; Kalium-Konzentration 5,0 mM) | % Erniedrigung Fluoreszenzintensität ([3]; Kalium-Konzentration 10,0 mM) | % Erniedrigung Fluoreszenzintensität ([3]; Kalium-Konzentration 100,0 mM) | other results
44 Prozent | 10 | CCCCCCCCNc1ccc2cc3ccc(NCCCCCCCC)cc3nc2c1 [Beispiel A1, 3,6-Bis(n-octylamino)-acridin] | 5% | 15% | 25% | 39% | 45% | 75% | –
41 Prozent | 11.1 | CCCCCCCCCCCCCCCCCCCCNc1ccc2cc3ccc(NCCCCCCCCCCCCCCCCCCCC)cc3nc2c1 [Beispiel A2, 3,6-Bis(n-eicosylamino)-acridin] | – | – | – | – | – | – | –
33 Prozent | 10.3 | CCCCCCCCCCCCCCCCCCCCN=c1ccc2c(-c3ccccc3C(=O)O)c3ccc(N(CC)CC)cc3oc-2c1 [Beispiel A5] | 20% | 35% | 45% | 53% | 60% | 68% | % Erniedrigung Fluoreszenzintensität ([4]; Kalzium-Konzentration 0,1 mM): 26,5%; % Erniedrigung Fluoreszenzintensität ([4]; Kalzium-Konzentration 0,5 mM): 43,1%; % Erniedrigung Fluoreszenzintensität ([4]; Kalzium-Konzentration 0 mM): 0%; % Erniedrigung Fluoreszenzintensität ([4]; Kalzium-Konzentration 1,0 mM): 50,6%; % Erniedrigung Fluoreszenzintensität ([4]; Kalzium-Konzentration 3,0 mM): 61,0%; % Erniedrigung Fluoreszenzintensität ([4]; Kalzium-Konzentration 5,0 mM): 65,8%; % Erniedrigung Fluoreszenzintensität ([4]; Kalzium-Konzentration 7,0 mM): 68,1%; % Erniedrigung Fluoreszenzintensität ([4]; Kalzium-Konzentration 10,0 mM): 71,0%; % Erniedrigung Fluoreszenzintensität ([3]; Kalium-Konzentration 0,01 mM): 5%; % Erniedrigung Fluoreszenzintensität ([5]; Natrium-Konzentration 0 mM): 0%; % Erniedrigung Fluoreszenzintensität ([5]; Natrium-Konzentration 3 mM): 15%; % Erniedrigung Fluoreszenzintensität ([5]; Natrium-Konzentration 15 mM): 41%; % Erniedrigung Fluoreszenzintensität ([5]; Natrium-Konzentration 30 mM): 54%; % Erniedrigung Fluoreszenzintensität ([5]; Natrium-Konzentration 90 mM): 72%; % Erniedrigung Fluoreszenzintensität ([5]; Natrium-Konzentration 150 mM): 79%; % Erniedrigung Fluoreszenzintensität ([5]; Natrium-Konzentration 210 mM): 83%; % Erniedrigung Fluoreszenzintensität ([5]; Natrium-Konzentration 300 mM): 86%
20 Prozent | – | CCCCCCCCN=c1ccc2c(-c3ccccc3C(=O)O)c3ccc(NCCCCCCCC)cc3oc-2c1 [Beispiel A6] | 36% | 41% | 43% | 48% | 52% | – | pKa-Wert [6]: 12,0
15 Prozent | – | CCCCCCCCCCCCCCCCCC(=O)N=c1ccc2c(-c3ccccc3C(=O)O)c3ccc(N(CC)CC)cc3oc-2c1 [Beispiel A7] | – | – | – | – | – | – | pKa-Wert ([2]; 30 Vol.-% Methanol / 70 Vol.-% Phosphatpuffer, pH 6 to 13, fluorophore 10⁻⁷ mol/l, inflection point of curve): 10,1

SMILES | Änderung Fluoreszenzintensität [1] | pKa [2] | % Erniedrigung Fluoreszenzintensität ([3]; Kalium-Konzentration 0,1 mM) | % Erniedrigung Fluoreszenzintensität ([3]; Kalium-Konzentration 0,5 mM) | % Erniedrigung Fluoreszenzintensität ([3]; Kalium-Konzentration 1,0 mM) | % Erniedrigung Fluoreszenzintensität ([3]; Kalium-Konzentration 5,0 mM) | % Erniedrigung Fluoreszenzintensität ([3]; Kalium-Konzentration 10,0 mM) | % Erniedrigung Fluoreszenzintensität ([3]; Kalium-Konzentration 100,0 mM) | other results
CCCCCCC(=O)Nc1ccc2cc3ccc(NC(=O)CCCCCC)cc3nc2c1 | 24 Prozent | 10 | – | – | – | – | – | – | –
